Values of other authors in patent publication US20070098676A1, “FUNCTIONALLY DIVERSE MACROMOLECULES AND THEIR SYNTHESIS” (priority 2005, published 2007).

Tested on: RSV
Settings: study conducted in 2001 (Huntley et al., 2002)

NC(=O)CN(CC(N)=O)S(=O)(=O)c1cccc(Nc2nc(Nc3cccc(S(=O)(=O)N(CC(N)=O)CC(N)=O)c3)nc(Nc3ccc(-c4ccc(Nc5nc(Nc6cccc(S(=O)(=O)N(CC(N)=O)CC(N)=O)c6)nc(Nc6cccc(S(=O)(=O)N(CC(N)=O)CC(N)=O)c6)n5)cc4S(=O)(=O)O)c(S(=O)(=O)O)c3)n2)c1 [RFI-641]
inhibition of RSV: potent and selective inhibitor of RSV
